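48-hour exposure; five concentrations; linearly interpolated endpoints. GI50 marks 50% less growth. TGI: concentration producing complete growth inhibition.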

The source of these data is PubChem BioAssay (NCI).

Test systems include SK-MEL-28 melanoma; SF-295 CNS; SK-MEL-5 melanoma; MDA-MB-231 breast; OVCAR-5 ovarian; TK-10 renal; HS 578T breast; HCT-15 colon; MCF7 breast; HCC-2998 colon.
Assay in all cases: NCI tumour cell line growth inhibition, 48 h

For the compound `CN(C)c1cc2c(Nc3ccc4c(cnn4Cc4ccccc4)c3)ncnc2cn1`, the GI50 in the assay on SK-MEL-28 melanoma is 20 µM; in the assay with SF-295 CNS, 7.58 µM; in the assay with SK-MEL-5 melanoma it was 7.61 µM; in the assay on MDA-MB-231 breast, 6.1 µM; in the assay on OVCAR-5 ovarian, 9.2 µM; in the assay on TK-10 renal, 0.741 µM. Besides, the GI50 in the assay with HS 578T breast was 16.6 µM; in the assay with HCT-15 colon, 9.6 µM; in the assay on MCF7 breast it was 16.5 µM; with HCC-2998 colon, 10.8 µM. For the same compound, the TGI was above 25 µM with SK-MEL-28 melanoma; above 23.1 µM in the assay with SF-295 CNS; above 20.5 µM in the assay on SK-MEL-5 melanoma; above 25 µM with MDA-MB-231 breast; above 25 µM with OVCAR-5 ovarian; above 23.2 µM with TK-10 renal. Besides, the TGI with HS 578T breast, with HCT-15 colon, in the assay with MCF7 breast and in the assay on HCC-2998 colon was above 25 µM each time.
As for `[Cl][Hg][c]1ccc2ccccc2c1`, the GI50 in the assay on SK-MEL-28 melanoma was 1.6 µM; in the assay with SF-295 CNS, 7.01 µM; in the assay with SK-MEL-5 melanoma, 1.25 µM; with MDA-MB-231 breast, 1.74 µM; with OVCAR-5 ovarian it was 7.55 µM; in the assay on TK-10 renal it was 2.92 µM. For the same compound, the GI50 with HS 578T breast was 1.77 µM; with HCT-15 colon it was 1.58 µM; with MCF7 breast, 2.07 µM; in the assay with HCC-2998 colon, 2.57 µM. In addition, the TGI in the assay on SK-MEL-28 melanoma came out at 3.03 µM; in the assay on SF-295 CNS, 18.9 µM; in the assay on SK-MEL-5 melanoma, 3.13 µM; with MDA-MB-231 breast it was 3.5 µM; in the assay with OVCAR-5 ovarian, 16.5 µM; with TK-10 renal it was 6.62 µM. The TGI in the assay on HS 578T breast came to 13.1 µM; in the assay on HCT-15 colon, 3.18 µM; in the assay on MCF7 breast, 5.61 µM; in the assay on HCC-2998 colon, 7.21 µM.
As to `C#CCOc1cccc(Nc2ncnc3cc(NC(=O)C=C)ccc23)c1`, the GI50 in the assay with SK-MEL-28 melanoma is 23 µM; in the assay with SF-295 CNS it was 14.6 µM; in the assay on SK-MEL-5 melanoma, 17.3 µM; in the assay on MDA-MB-231 breast, 6.47 µM; in the assay with OVCAR-5 ovarian, 14.1 µM; in the assay with TK-10 renal, 4.05 µM. Further, the GI50 in the assay on HS 578T breast was 5.87 µM; in the assay on HCT-15 colon it was 3.44 µM; in the assay with MCF7 breast it was 3.65 µM; in the assay with HCC-2998 colon, 11.6 µM. Moreover, the TGI in the assay with SK-MEL-28 melanoma is above 100 µM; in the assay with SF-295 CNS, above 100 µM; in the assay with SK-MEL-5 melanoma it was above 100 µM; in the assay on MDA-MB-231 breast, above 100 µM; in the assay on OVCAR-5 ovarian, above 100 µM; in the assay on TK-10 renal, 35.6 µM. Besides, the TGI in the assay on HS 578T breast was 89.8 µM; in the assay with HCT-15 colon, above 100 µM; with MCF7 breast, above 100 µM; in the assay with HCC-2998 colon, 60.4 µM.
Turning to `CCCCSc1nc(N)c2cn[nH]c2n1`, the GI50 in the assay with SK-MEL-28 melanoma is 20.3 µM; with SF-295 CNS it was 20.8 µM; in the assay with SK-MEL-5 melanoma it was 15.5 µM; with MDA-MB-231 breast it was 15.5 µM; with OVCAR-5 ovarian it was 16.6 µM; in the assay with TK-10 renal it was 7.99 µM. The GI50 is 22 µM with HS 578T breast, 32.9 µM with HCT-15 colon, 23.4 µM with MCF7 breast and 0.22 µM in the assay with HCC-2998 colon. Also, the TGI was 40.3 µM in the assay on SK-MEL-28 melanoma; 38.8 µM in the assay with SF-295 CNS; 33.2 µM in the assay on SK-MEL-5 melanoma; 35.2 µM in the assay with MDA-MB-231 breast; 54.3 µM with OVCAR-5 ovarian; 29.4 µM in the assay on TK-10 renal. Moreover, the TGI in the assay on HS 578T breast is 63.2 µM; with HCT-15 colon, above 100 µM; in the assay with MCF7 breast, above 62.5 µM; in the assay on HCC-2998 colon, 2.26 µM.
As to `COc1ccc(/C=C2\COc3ccc(O)c(O)c3C2=O)cc1OC`, the GI50 was 1.8 µM in the assay on SK-MEL-28 melanoma; 2.7 µM with SF-295 CNS; 1.79 µM in the assay with SK-MEL-5 melanoma; 1.48 µM in the assay with MDA-MB-231 breast; 1.73 µM in the assay on OVCAR-5 ovarian; 2.66 µM in the assay on TK-10 renal. Further, the GI50 in the assay with HS 578T breast was 2.23 µM; in the assay with HCT-15 colon it was 0.488 µM; with MCF7 breast, 0.682 µM; in the assay with HCC-2998 colon, 1.76 µM. The TGI in the assay on SK-MEL-28 melanoma is 3.69 µM; in the assay with SF-295 CNS, 7.18 µM; in the assay with SK-MEL-5 melanoma, 3.4 µM; with MDA-MB-231 breast, 5.55 µM; in the assay with OVCAR-5 ovarian, 3.8 µM; with TK-10 renal it was 27.6 µM. In addition, the TGI in the assay on HS 578T breast is 8.29 µM; with HCT-15 colon, 5.73 µM; in the assay with MCF7 breast, above 100 µM; with HCC-2998 colon it was 3.31 µM.
Consider `O=C1c2ccn(CCCNC(CO)(CO)CO)c2C(=O)c2c1c(O)c1ccccc1c2O`, for which the GI50 is 51.3 µM with SK-MEL-28 melanoma; 15 µM with SF-295 CNS; 8.39 µM in the assay on MDA-MB-231 breast; 1.32 µM with TK-10 renal; 1.22 µM with HS 578T breast; 14.2 µM with HCT-15 colon. Further, the GI50 in the assay with MCF7 breast is 13 µM; with HCC-2998 colon, 2.52 µM. Moreover, the TGI with SK-MEL-28 melanoma was above 100 µM; with SF-295 CNS, above 49.8 µM; in the assay on SK-MEL-5 melanoma, 0.588 µM; with MDA-MB-231 breast, 25.2 µM; in the assay with OVCAR-5 ovarian, 13.5 µM; with TK-10 renal, 22.6 µM. For the same compound, the TGI with HCT-15 colon is 28.6 µM; in the assay with MCF7 breast it was 33 µM; with HCC-2998 colon, 8.2 µM.
Take `CSc1ccc(NC(=O)Nc2cc(C)ccn2)cc1`: the TGI with SK-MEL-28 melanoma, in the assay with SF-295 CNS, with SK-MEL-5 melanoma, with MDA-MB-231 breast, in the assay on OVCAR-5 ovarian and in the assay on TK-10 renal was above 100 µM each time. The TGI with HS 578T breast, with HCT-15 colon, in the assay on MCF7 breast and in the assay on HCC-2998 colon was above 100 µM each time.
As to `COc1cc2c3c(n(CCN4CCOCC4)c(=O)c2cc1OC)-c1ccccc1C3=O`, the GI50 was above 100 µM in the assay with SK-MEL-28 melanoma; 34.6 µM in the assay with SF-295 CNS; above 100 µM in the assay with SK-MEL-5 melanoma; above 100 µM in the assay with MDA-MB-231 breast; above 100 µM in the assay with OVCAR-5 ovarian; above 100 µM with TK-10 renal. The GI50 with HS 578T breast was above 100 µM; with HCT-15 colon, above 100 µM; with MCF7 breast it was 37.8 µM; in the assay with HCC-2998 colon, 33.8 µM. The TGI in the assay with SK-MEL-28 melanoma, in the assay on SF-295 CNS, with SK-MEL-5 melanoma, in the assay on MDA-MB-231 breast, in the assay on OVCAR-5 ovarian and in the assay with TK-10 renal was above 100 µM each time. Also, the TGI in the assay on HS 578T breast, with HCT-15 colon, in the assay on MCF7 breast and in the assay with HCC-2998 colon was above 100 µM each time.
